This data set in a line: Levels of PCB 95 and its hydroxylated metabolites in adipose, blood, brain and liver 24 h after a single oral dose (GC-MS/MS). Type of data set: in vivo, mice. Conditions: single oral PCB 95 1.0 mg/kg, mean ± SD, 1 mg/kg; for concentration at 24 h: mouse, po. As to the method:
Adult male and female wild-type (WT) C57BL/6 mice, KO, and KI mice (4 months old) were exposed to racemic PCB 95. Mice were randomly assigned to exposure groups and received a single oral dose of PCB 95 (1.0 mg/kg) in stripped corn oil (10 mL/kg; lot# A0395699; cat# 801-03-7; Fisher Scientific) via gavage (5–7 mice per group). Control animals received corn oil alone (1–3 mice per group) to assess the potential background contamination with PCB 95. Animals were euthanized 24 h after PCB 95 exposure. Blood was collected from the heart and placed in pre-weighed glass vials with 80 μL of ethylenediaminetetraacetic acid solution (EDTA, 7.5%, w/w). The amount of blood in each vial was determined by weight prior to sample extraction. Adipose, brain, and liver tissues were excised from each animal and individually wrapped in aluminum foil. Samples were stored at −80 °C in separate plastic bags and shipped on dry ice to the University of Iowa for analysis.
PCB 95 and its hydroxylated metabolites were extracted from adipose (0.06 ± 0.01 g), brain (0.19 ± 0.03 g) and liver tissues (0.49 ± 0.07 g) by pressurized liquid extraction (PLE) with a Dionex ASE200 system (Dionex, Sunnyvale, CA, USA).[45] Tissues were homogenized with 2 g of pre-cleaned diatomaceous earth (Thermo Fisher Scientific, Pittsburgh, PA, USA) and placed in extraction cells loaded with 10 g of pre-extracted Florisil (60–100 mesh, Fisher Scientific, Pittsburgh, PA, USA). Tissue samples were then spiked with recovery standards [50 ng of PCB 117 in 50 μL of isooctane and 50 ng of 4′-159 (2′,3,3′,5,5′,6′-hexachlorobiphenyl-4-ol) in 50 μL of methanol]. For ongoing precision recovery (OPR) samples; recovery standard, internal standard, PCB 95, and its metabolites (50 ng each) were spiked to the method blank (DE only) and tissues from control animals. Cells were extracted with hexane–dichloromethane–methanol (48:43:9, v/v/v) at 100 °C and 1500 psi (10 MPa), with preheat equilibration for 6 min, 60% of cell flush volume, and 1 static cycle of 5 min. The extracts were concentrated to approximately 1 mL with a TurboVap II (Biotage, LLC, NC, USA) and transferred to new glass tubes with 1 mL of hexane. The solvent was evaporated to near dryness under a gentle stream of nitrogen, and extracts were redissolved in 1 mL of hexane.
PCB 95 and its hydroxylated metabolites were extracted from whole blood (0.45 ± 0.13 g) using a published liquid–liquid extraction procedure.[29] Briefly, blood samples were thawed, and 3 mL of aqueous 1% KCl solution was added to each sample. Recovery standards (50 ng of PCB 117 in 50 μL of isooctane and 50 ng of 4′-159 in 50 μL of methanol) were spiked to all samples, including OPR samples, before extraction. Subsequently, 1 mL of 6 M HCl, 5 mL of 2-propanol, and 5 mL of 1:1 hexane–MTBE mixture (v/v) were added to the blood samples. The samples were inverted for 5 min and centrifuged at 1690g for 5 min to facilitate the phase separation. Next, the organic phases were transferred to new glass tubes, and the aqueous phases were re-extracted with 3 mL of hexane. Next, three mL of aqueous 1% KCl were added to the combined organic extracts, and samples were inverted and centrifuged as described above. The organic phase was transferred to a new tube, and the aqueous phase was re-extracted with 3 mL of hexane. The combined organic extracts were evaporated to near dryness using a Savant SpeedVac SPD210 (Thermo Scientific, Waltham, MA, US), and each sample was reconstituted with 0.5 mL of hexane.
Five drops of methanol and 0.5 mL of diazomethane (CH2N2; about 0.1 mmol) in diethyl ether were added to the tissue or blood extracts to derivatize the OH-PCBs.[45] Diazomethane rapidly converts the phenolic hydroxyl groups of OH-PCBs to methoxy groups (i.e., −OH → −OCH3). All samples were stored at 4 °C for approximately 16 h. Excess diazomethane evaporated under a gentle stream of nitrogen in a fume hood, followed by adding 0.5 mL of hexane. […]

Setting [1] is: female, C57BL/6 (wild-type), adipose, FWT, female wildtype mice, read-out: Levels in adipose.
Where [2] appears, read: female, C57BL/6 (wild-type), liver, FWT, female wildtype mice, read-out: Levels in liver.
Setting [3] is: female, C57BL/6 (wild-type), whole blood, FWT, female wildtype mice, read-out: Levels in blood.
The mark [4] stands for this setting: female, CYP2A6-humanized (KI), liver, FKI, female CYP2A6-humanized mice, read-out: Levels in liver.
The mark [5] stands for this setting: female, CYP2A6-humanized (KI), whole blood, FKI, female CYP2A6-humanized mice, read-out: Levels in blood.
Setting [6] is: female, Cyp2abfgs-null (KO), liver, FKO, female Cyp2abfgs-null mice, read-out: Levels in liver.
[7] abbreviates: female, Cyp2abfgs-null (KO), whole blood, FKO, female Cyp2abfgs-null mice, read-out: Levels in blood.
Where [8] appears, read: male, C57BL/6 (wild-type), adipose, MWT, male wildtype mice, read-out: Levels in adipose.
Setting [9] is: male, C57BL/6 (wild-type), liver, MWT, male wildtype mice, read-out: Levels in liver.
Setting [10] is: male, C57BL/6 (wild-type), whole blood, MWT, male wildtype mice, read-out: Levels in blood.
Setting [11] is: male, CYP2A6-humanized (KI), adipose, MKI, male CYP2A6-humanized mice, read-out: Levels in adipose.
[12] abbreviates: male, CYP2A6-humanized (KI), liver, MKI, male CYP2A6-humanized mice, read-out: Levels in liver.
[13] abbreviates: male, CYP2A6-humanized (KI), whole blood, MKI, male CYP2A6-humanized mice, read-out: Levels in blood.
The mark [14] stands for this setting: male, Cyp2abfgs-null (KO), adipose, MKO, male Cyp2abfgs-null mice, read-out: Levels in adipose.
The mark [15] stands for this setting: male, Cyp2abfgs-null (KO), liver, MKO, male Cyp2abfgs-null mice, read-out: Levels in liver.
[16] abbreviates: male, Cyp2abfgs-null (KO), whole blood, MKO, male Cyp2abfgs-null mice, read-out: Levels in blood.
The mark [17] stands for this setting: female, C57BL/6 (wild-type), brain, FWT, female wildtype mice, read-out: Levels in brain.
Setting [18] is: female, CYP2A6-humanized (KI), adipose, FKI, female CYP2A6-humanized mice, read-out: Levels in adipose.
[19] abbreviates: female, Cyp2abfgs-null (KO), adipose, FKO, female Cyp2abfgs-null mice, read-out: Levels in adipose.

This is an account of results in PMC10445290, “Enantiomeric Fractions Reveal Differences in the Atropselective Disposition of 2,2′,3,5′,6-Pentachlorobiphenyl (PCB 95) in Wildtype, Cyp2abfgs-Null, and CYP2A6-Humanized Mice” (Chemical Research in Toxicology, 2023).

Where two headings read alike, the source gives them in different places.

With `Oc1cc(Cl)c(-c2cc(Cl)ccc2Cl)c(Cl)c1Cl` [4-95, 2,2',3,5',6-pentachlorobiphenyl-4-ol], under “FKI, female CYP2A6-humanized mice”, the Levels in liver stood at 0.4 ng/g tissue. The concentration at 24 h by setting is: under setting [1], 0.4 ± 0.1 ng/g; under setting [2], 1 ± 0.6 ng/g; under setting [3], 1.5 ± 0.5 ng/g; under setting [4], 0.4 ± 0.1 ng/g; under setting [5], 1 ± 0.8 ng/g; under setting [6], 0.4 ± 0.3 ng/g. In addition, the concentration at 24 h runs as follows: under setting [7], 0.4 ± 0.3 ng/g; under setting [8], 0.5 ± 0.3 ng/g; under setting [9], 2 ± 0.8 ng/g; under setting [10], 3.2 ± 1.1 ng/g; under setting [11], 0.3 ng/g; under setting [12], 0.8 ± 0.5 ng/g. The concentration at 24 h under setting [13] came out at 1.1 ± 0.6 ng/g, the concentration at 24 h under setting [14] is 0.4 ± 0.1 ng/g, the concentration at 24 h under setting [15] was determined as 1.1 ± 0.9 ng/g and the concentration at 24 h under setting [16] amounted to 1.5 ± 0.8 ng/g.

As for `Oc1cc(Cl)c(-c2c(Cl)ccc(Cl)c2Cl)cc1Cl` [4'-95], the Levels in liver (FKO, female Cyp2abfgs-null mice) was 8.5 ng/g tissue. The concentration at 24 h under setting [1] amounted to 1.4 ± 0.6 ng/g; the concentration at 24 h under setting [17] was found to be 0.3 ng/g; the concentration at 24 h under setting [2] turned out to be 3.7 ± 1.8 ng/g; the concentration at 24 h under setting [3] turned out to be 2.2 ± 1 ng/g; the concentration at 24 h under setting [18] was 1.1 ± 0.3 ng/g; the concentration at 24 h under setting [4] is 4.5 ± 2.6 ng/g. For the same molecule, the concentration at 24 h runs as follows: under setting [5], 3.4 ± 2.5 ng/g; under setting [19], 1.5 ± 0.4 ng/g; under setting [6], 8.5 ± 3.9 ng/g; under setting [7], 2.2 ± 1.2 ng/g; under setting [8], 2.1 ± 0.8 ng/g; under setting [9], 5.7 ± 2.8 ng/g. For the same molecule, the concentration at 24 h came out at 3.5 ± 1.1 ng/g under setting [10]; 1.1 ± 0.2 ng/g under setting [11]; 3.8 ± 2.1 ng/g under setting [12]; 1.3 ± 0.7 ng/g under setting [13]; 2.5 ± 1.7 ng/g under setting [14]; 0.2 ng/g (male, Cyp2abfgs-null (KO), brain, MKO, male Cyp2abfgs-null mice, read-out: Levels in brain). The concentration at 24 h under setting [15] is 7.7 ± 3.6 ng/g and the concentration at 24 h under setting [16] was determined as 2.8 ± 0.9 ng/g.

On to `Oc1c(Cl)cc(Cl)c(-c2cc(Cl)ccc2Cl)c1Cl` [3-103, 2,2',4,5',6-pentachlorobiphenyl-3-ol], for which the concentration at 24 h runs as follows: under setting [1], 0.7 ng/g; under setting [2], 1.2 ± 0.4 ng/g; under setting [3], 1 ± 0.5 ng/g; under setting [4], 1 ± 0.4 ng/g; under setting [5], 1.1 ± 1.2 ng/g; under setting [6], 1.8 ± 0.4 ng/g. Moreover, the concentration at 24 h is, setting by setting: under setting [7], 0.8 ± 0.3 ng/g; under setting [9], 0.7 ± 0.3 ng/g; under setting [10], 0.6 ± 0.2 ng/g; under setting [12], 0.6 ± 0.2 ng/g; under setting [13], 0.4 ± 0.1 ng/g; under setting [14], 1.5 ± 0.7 ng/g. For the same molecule, the concentration at 24 h by setting is: under setting [15], 1 ± 0.4 ng/g; under setting [16], 0.5 ± 0.1 ng/g.

As for `Oc1cc(Cl)c(Cl)c(-c2cc(Cl)ccc2Cl)c1Cl` [5-95, 2,2',3,5',6-pentachlorobiphenyl-5-ol], the concentration at 24 h came out at 1.3 ± 1.1 ng/g under setting [1]; 0.25 ± 0.02 ng/g under setting [17]; 3.8 ± 1.6 ng/g under setting [2]; 0.9 ± 0.6 ng/g under setting [3]; 1.1 ± 0.4 ng/g under setting [18]; 5.5 ± 3.1 ng/g under setting [4]. The concentration at 24 h was determined as 1.9 ± 1.6 ng/g under setting [5]; 1 ± 0.4 ng/g under setting [19]; 6.2 ± 1.1 ng/g under setting [6]; 0.7 ± 0.3 ng/g under setting [7]; 1.8 ± 1 ng/g under setting [8]; 3.3 ± 1.6 ng/g under setting [9]. For the same molecule, the concentration at 24 h reads like this: under setting [10], 1.1 ± 0.3 ng/g; under setting [11], 0.8 ± 0.5 ng/g; under setting [12], 3.3 ± 2.1 ng/g; under setting [13], 0.6 ± 0.3 ng/g; under setting [14], 3.5 ± 4.8 ng/g; under setting [15], 3.7 ± 1.6 ng/g. Moreover, under setting [16], the concentration at 24 h turned out to be 0.7 ± 0.3 ng/g.

With `Oc1c(O)c(Cl)c(-c2cc(Cl)ccc2Cl)c(Cl)c1Cl` [4,5-95, 2,2',3,5',6-pentachlorobiphenyl-4,5-diol], the concentration at 24 h came out at 0.9 ± 0.2 ng/g under setting [1]; 2.2 ± 0.9 ng/g under setting [2]; 5.2 ± 1.9 ng/g under setting [3]; 1 ± 0.6 ng/g under setting [18]; 1.7 ± 0.3 ng/g under setting [4]; 5.2 ± 4.8 ng/g under setting [5]. Also, the concentration at 24 h is, setting by setting: under setting [19], 1.6 ng/g; under setting [6], 1.2 ± 0.7 ng/g; under setting [7], 1.4 ± 0.7 ng/g; under setting [8], 0.9 ± 0.2 ng/g; under setting [9], 3.4 ± 1.2 ng/g; under setting [10], 9.1 ± 2.6 ng/g. In addition, the concentration at 24 h turned out to be 0.7 ± 0.2 ng/g under setting [11]; 1.7 ± 0.8 ng/g under setting [12]; 3.6 ± 1.3 ng/g under setting [13]; 1.9 ± 0.8 ng/g under setting [14]; 2.8 ± 1.6 ng/g under setting [15]; 5.3 ± 3.8 ng/g under setting [16].
